Measured values published in US20210315840A1, “SOLID ORAL DOSAGE FORMS OF KETAMINE DERIVATIVES” (priority 2017, published 2021).
Read-outs that look alike come from different tables or passages of the source.

Tests used:
[1] = pKa by potentiometric (pH-metric) titration; assay type: physicochemical; settings: methanol-water co-solvent, Yasuda-Shedlovsky extrapolation
Procedure: The sample pKa was determined using the potentiometric (pH-metric) technique following attempts to determine pKa via UV spectroscopic techniques.
UV-metric: The sample was initially titrated in a fast-UV triple titration between pH 2.0-12.0 at concentrations of 31-19 μM, under aqueous conditions. No evidence of any sample ionisation within the investigated pH range was inferred from the spectroscopic data obtained, meaning that any ionisable groups were remote from chromophores. Therefore, the sample was analysed using the pH-metric method.
pH-metric: The sample was subsequently titrated using the potentiometric technique to determine the non-UV active pKas. A triple titration was carried out under methanol-water co-solvent conditions from pH 2.0-12.0 at concentrations of 0.9-0.6 mM (the methanol mixing ratio varied from 53.0 to 33.3% w/w).

[2] = molecular target: CYP2D6 (Homo sapiens, UniProt P10635); test: CYP inhibition assay CYP2D6; assay type: in vitro ADME
From the text: (§1) Cytochrome P450s (CYPs) are a family of enzymes that play a primary role in the metabolism of a wide variety of drugs. 2R,6R-hydroxynorketamine was investigated for its potential to inhibit the action of 7 key CYP enzymes using an inhibition assay measuring reduction in the formation of metabolites compared to control.

[3] = system: Caco-2
[4] = molecular target: dopamine transporter (Homo sapiens, UniProt Q01959); test: Binding assay dopamine transporter
From the text: (§2) 2R,6R-hydroxynorketamine was investigated for binding to monoamine oxidases A and B, monoamine transporters, as well as a variety of 5HT receptors.

[5] = molecular target: T1, CYP2C8 (Homo sapiens, UniProt P10632); test: CYP inhibition assay CYP2C8; assay type: in vitro ADME
T1 sequence (P10632 1-490): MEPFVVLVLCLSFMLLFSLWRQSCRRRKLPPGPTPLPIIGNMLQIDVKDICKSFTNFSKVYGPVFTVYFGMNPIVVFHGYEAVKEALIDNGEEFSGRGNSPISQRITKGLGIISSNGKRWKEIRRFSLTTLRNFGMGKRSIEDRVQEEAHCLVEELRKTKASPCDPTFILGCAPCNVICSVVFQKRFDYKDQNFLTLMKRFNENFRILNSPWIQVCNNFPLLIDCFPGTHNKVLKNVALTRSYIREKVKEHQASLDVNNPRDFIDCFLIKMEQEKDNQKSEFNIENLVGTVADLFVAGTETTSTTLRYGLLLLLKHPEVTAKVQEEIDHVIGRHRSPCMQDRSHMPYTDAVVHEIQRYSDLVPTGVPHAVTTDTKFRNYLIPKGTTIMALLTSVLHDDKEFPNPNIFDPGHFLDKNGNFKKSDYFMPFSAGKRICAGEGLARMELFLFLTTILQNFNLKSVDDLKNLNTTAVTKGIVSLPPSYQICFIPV
From the text: as §1

[6] = DSC compatibility with excipients and capsule shells
[7] = molecular target: 5-HT2A (Homo sapiens, UniProt P28223); test: Binding assay 5-HT2A
From the text: as §2

[8] = molecular target: UGT1A1 (Homo sapiens, UniProt P22309); test: UGT inhibition assay UGT1A1; assay type: in vitro ADME
From the text: 2R,6R-hydroxynorketamine was therefore investigated for its potential to inhibit this isozyme, along with that of the major UGT isozyme, UGT1A1, using a UGT inhibition assay.

[9] = system: 5-HT1, Non-Selective; test: Binding assay 5-HT1, Non-Selective
From the text: as §2
An absence of interaction between 2R,6R-hydroxynorketamine and 5HT1 receptors is also of note. Rare postmarketing reports have described patients with weakness, hyperreflexia, and incoordination following the use of an SSRI and the 5HT1 agonist, sumatriptan. The possibility of such interactions should also be considered if other 5HT1 agonists are to be used in combination with SSRIs.

[10] = molecular target: CYP2C9 (Homo sapiens, UniProt P11712); test: CYP inhibition assay CYP2C9; assay type: in vitro ADME
From the text: as §1

[11] = system: α-amino-3-hydroxy-5-methyl-4-isoxazolepropionic acid receptor (AMPAR)-mediated currents; test: In vitro electrophysiology, field excitatory postsynaptic potentials; settings: estimated
Procedure: The free (unbound) concentration of 2R,6R-hydroxynorketamine producing pharmacodynamics activity in the brain is estimated to be approximately 10 μM.

[12] = molecular target: MAO-B (Homo sapiens, UniProt P27338); test: Binding assay MAO-B
From the text: as §2

[13] = molecular target: T2, 5-HT1A (Homo sapiens, UniProt P08908); test: Binding assay 5-HT1A
T2 sequence (P08908 1-422): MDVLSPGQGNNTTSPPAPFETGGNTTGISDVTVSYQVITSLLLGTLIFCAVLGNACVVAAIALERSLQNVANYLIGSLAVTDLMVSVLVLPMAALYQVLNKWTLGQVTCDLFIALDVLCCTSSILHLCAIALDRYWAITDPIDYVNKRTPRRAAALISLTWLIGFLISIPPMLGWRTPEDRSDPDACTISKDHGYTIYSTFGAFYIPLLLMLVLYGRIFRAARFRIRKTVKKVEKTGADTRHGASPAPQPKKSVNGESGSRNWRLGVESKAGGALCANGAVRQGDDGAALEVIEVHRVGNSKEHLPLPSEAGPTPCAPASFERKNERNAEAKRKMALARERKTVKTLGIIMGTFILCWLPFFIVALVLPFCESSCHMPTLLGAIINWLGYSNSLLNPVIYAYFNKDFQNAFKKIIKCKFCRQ
From the text: as §2

Sequence of CYP2D6 (P10635 whole entry): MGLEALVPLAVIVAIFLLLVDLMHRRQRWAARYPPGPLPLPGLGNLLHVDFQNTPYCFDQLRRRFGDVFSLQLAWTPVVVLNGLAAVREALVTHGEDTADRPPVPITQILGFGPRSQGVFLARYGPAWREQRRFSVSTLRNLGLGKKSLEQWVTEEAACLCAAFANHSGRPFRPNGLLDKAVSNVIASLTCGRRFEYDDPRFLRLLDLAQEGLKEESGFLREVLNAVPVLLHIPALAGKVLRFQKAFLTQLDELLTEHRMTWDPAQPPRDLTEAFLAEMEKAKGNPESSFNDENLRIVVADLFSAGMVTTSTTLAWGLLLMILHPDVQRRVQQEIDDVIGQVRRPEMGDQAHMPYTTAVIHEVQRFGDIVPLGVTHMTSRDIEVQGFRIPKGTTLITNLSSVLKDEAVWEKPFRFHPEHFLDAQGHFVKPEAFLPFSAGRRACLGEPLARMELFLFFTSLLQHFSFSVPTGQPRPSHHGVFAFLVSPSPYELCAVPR
Sequence of CYP2C9 (P11712 whole entry): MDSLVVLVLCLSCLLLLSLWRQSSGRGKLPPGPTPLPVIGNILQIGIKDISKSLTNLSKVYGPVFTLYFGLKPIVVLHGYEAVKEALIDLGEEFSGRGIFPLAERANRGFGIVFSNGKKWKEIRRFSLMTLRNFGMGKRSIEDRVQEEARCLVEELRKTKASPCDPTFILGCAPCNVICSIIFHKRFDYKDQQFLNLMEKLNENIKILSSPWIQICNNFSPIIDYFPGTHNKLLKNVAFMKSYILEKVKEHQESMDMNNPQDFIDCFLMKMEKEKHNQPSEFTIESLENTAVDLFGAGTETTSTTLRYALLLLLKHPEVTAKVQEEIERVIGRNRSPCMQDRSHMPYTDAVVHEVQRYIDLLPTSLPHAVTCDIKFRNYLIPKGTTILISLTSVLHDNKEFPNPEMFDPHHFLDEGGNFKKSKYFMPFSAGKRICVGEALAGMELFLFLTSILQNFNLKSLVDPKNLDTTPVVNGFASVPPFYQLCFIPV
Sequence of 5-HT2A (P28223 whole entry): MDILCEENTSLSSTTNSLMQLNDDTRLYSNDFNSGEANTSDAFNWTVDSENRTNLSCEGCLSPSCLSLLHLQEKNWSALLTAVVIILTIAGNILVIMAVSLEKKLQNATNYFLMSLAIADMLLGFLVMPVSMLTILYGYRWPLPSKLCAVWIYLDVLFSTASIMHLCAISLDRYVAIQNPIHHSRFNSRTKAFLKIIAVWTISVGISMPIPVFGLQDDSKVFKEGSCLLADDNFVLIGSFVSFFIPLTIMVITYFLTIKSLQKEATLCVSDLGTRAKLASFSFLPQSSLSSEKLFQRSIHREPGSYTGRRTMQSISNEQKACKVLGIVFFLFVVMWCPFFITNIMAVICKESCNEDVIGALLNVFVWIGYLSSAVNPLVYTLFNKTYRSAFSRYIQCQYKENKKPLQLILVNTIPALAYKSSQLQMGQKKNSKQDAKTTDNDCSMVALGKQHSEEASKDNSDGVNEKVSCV
Sequence of MAO-B (P27338 whole entry, species assumed): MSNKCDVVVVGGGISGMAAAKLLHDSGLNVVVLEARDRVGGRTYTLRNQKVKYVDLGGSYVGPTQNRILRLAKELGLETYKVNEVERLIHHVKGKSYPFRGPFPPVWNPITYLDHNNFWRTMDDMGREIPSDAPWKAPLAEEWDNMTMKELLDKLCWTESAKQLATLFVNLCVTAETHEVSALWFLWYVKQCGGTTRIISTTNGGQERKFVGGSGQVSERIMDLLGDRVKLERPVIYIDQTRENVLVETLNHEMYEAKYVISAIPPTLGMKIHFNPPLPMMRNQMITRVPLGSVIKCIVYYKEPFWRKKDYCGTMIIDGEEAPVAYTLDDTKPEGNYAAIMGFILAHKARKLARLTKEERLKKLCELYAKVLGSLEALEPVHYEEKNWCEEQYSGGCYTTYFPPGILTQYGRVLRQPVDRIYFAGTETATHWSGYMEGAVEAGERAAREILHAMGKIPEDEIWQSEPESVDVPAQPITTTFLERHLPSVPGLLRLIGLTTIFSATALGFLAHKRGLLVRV
Sequence of dopamine transporter (Q01959 whole entry): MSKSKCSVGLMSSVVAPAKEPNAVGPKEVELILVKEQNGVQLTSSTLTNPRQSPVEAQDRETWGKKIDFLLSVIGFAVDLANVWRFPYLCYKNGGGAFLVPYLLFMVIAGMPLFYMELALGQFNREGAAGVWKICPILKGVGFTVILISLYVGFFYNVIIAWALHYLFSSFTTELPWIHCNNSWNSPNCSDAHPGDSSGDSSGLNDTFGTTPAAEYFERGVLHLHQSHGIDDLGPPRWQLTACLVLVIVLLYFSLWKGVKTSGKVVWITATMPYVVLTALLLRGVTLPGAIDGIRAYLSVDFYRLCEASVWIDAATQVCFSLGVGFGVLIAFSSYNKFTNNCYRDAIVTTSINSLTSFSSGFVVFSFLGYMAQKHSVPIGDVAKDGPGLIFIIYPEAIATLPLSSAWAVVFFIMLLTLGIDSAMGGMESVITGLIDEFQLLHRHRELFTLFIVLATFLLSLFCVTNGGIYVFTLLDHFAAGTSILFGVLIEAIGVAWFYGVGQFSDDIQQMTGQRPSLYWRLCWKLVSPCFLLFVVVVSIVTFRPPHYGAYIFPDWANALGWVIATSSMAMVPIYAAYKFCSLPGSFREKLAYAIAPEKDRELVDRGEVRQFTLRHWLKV
Sequence of UGT1A1 (P22309 26-533): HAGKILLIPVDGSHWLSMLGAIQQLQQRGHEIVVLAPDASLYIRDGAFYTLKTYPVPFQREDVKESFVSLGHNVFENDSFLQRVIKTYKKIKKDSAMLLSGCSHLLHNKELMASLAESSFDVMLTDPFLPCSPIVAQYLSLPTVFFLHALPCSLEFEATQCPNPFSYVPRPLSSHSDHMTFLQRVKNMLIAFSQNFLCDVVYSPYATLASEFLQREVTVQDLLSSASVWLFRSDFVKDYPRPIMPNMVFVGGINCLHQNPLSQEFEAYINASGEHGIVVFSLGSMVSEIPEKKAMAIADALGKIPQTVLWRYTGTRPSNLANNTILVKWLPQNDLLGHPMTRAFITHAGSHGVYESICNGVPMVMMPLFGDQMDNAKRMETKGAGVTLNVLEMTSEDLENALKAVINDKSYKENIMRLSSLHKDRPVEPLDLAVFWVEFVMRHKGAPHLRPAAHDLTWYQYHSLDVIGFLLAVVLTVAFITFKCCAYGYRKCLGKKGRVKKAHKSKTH

In the case of `N[C@@]1(c2ccccc2Cl)CCC[C@@H](O)C1=O` [2R,6R-hydroxynorketamine, 2R,6R-2-(2-Chlorophenyl)-2-(amino)-6-hydroxycyclohexanone], the pKa [1] is reported as 6.51+/−0.02, the “inhibition of CYP2D6 (in words)” value [2] is reported as “did not inhibit” and the “% Inhibition” value ([2]; 0.4 μM) is reported as 3.16%. The “% Inhibition” value ([2]; 1 μM) was 6.65%, the “% Inhibition” value ([2]; 4 μM) was 11.5% and the “% Inhibition” value ([2]; 10 μM) was 9.41%. The “% Inhibition” value ([2]; 40 μM) was 11.2%, the “% Inhibition” value ([2]; 100 μM) was 5.73% and the “substrate of p-gp or Breast Cancer Resistance Protein (BCRP) efflux transporters” value ([3]; Caco-2) was “not a substrate”. The “permeability (in words)” value ([3]; Caco-2 permeability assay) was “high”, the “Mean % Recovery” value ([3]; Direction = A2B) was 98.9% and the “Mean Papp” value ([3]; Direction = A2B) was 45.7 10^−6 cms^−1. The “Papp Replicate 1” value ([3]; Direction = A2B) was 49.1 10^−6 cms^−1, the “Papp Replicate 2” value ([3]; Direction = A2B) was 42.3 10^−6 cms^−1 and the “Mean % Recovery” value ([3]; Direction = B2A) was 103%. The “Mean Papp” value ([3]; Direction = B2A) was 50.7 10^−6 cms^−1, the “Papp Replicate 1” value ([3]; Direction = B2A) was 52.8 10^−6 cms^−1 and the “Papp Replicate 2” value ([3]; Direction = B2A) was 48.5 10^−6 cms^−1. For the same molecule, the “% Inhibition of Control Specific Binding” value [4] was 11%, the “% of Control Specific Binding” value [4] was 87.2% and the “inhibition of CYP2C8 (in words)” value [5] was “did not inhibit”. For the same molecule, the “% Inhibition” value ([5]; 0.4 μM) was 5.63%, the “% Inhibition” value ([5]; 1 μM) was 4.91% and the “% Inhibition” value ([5]; 4 μM) was 12.5%. For the same molecule, the “% Inhibition” value ([5]; 10 μM) was 8.33%, the “% Inhibition” value ([5]; 40 μM) was 8.35% and the “% Inhibition” value ([5]; 100 μM) was 2.08%. For the same molecule, the “compatibility with dicalcium phosphate and microcrystalline cellulose” value [6] was “compatibility”, the “compatibility with lactose monohydrate (DSC)” value ([6]; binary mix 1:2 API:Excipient) was “incompatible” and the “% Inhibition of Control Specific Binding” value [7] was 0%. For the same molecule, the “% of Control Specific Binding” value [7] was 103.8%, the “binding to 5HT2A receptor subtype (in words)” value [7] was “does not bind” and the “inhibition of UGT1A1 (in words)” value [8] was “does not inhibit”. For the same molecule, the “% Inhibition of Control Specific Binding” value [9] was −9%, the “% of Control Specific Binding” value [9] was 105.4% and the “binding to 5HT1 receptors (in words)” value [9] was “does not bind”. The “inhibition of CYP2C9 (in words)” value [10] was “did not inhibit”, the “% Inhibition” value ([10]; 0.4 μM) was 4.59% and the “% Inhibition” value ([10]; 1 μM) was 5.92%. The “% Inhibition” value ([10]; 4 μM) was 5.80%, the “% Inhibition” value ([10]; 10 μM) was 11.9% and the “% Inhibition” value ([10]; 40 μM) was −0.113%. The “% Inhibition” value ([10]; 100 μM) was −1.33%, the “free (unbound) concentration producing pharmacodynamics activity in the brain, sufficient to increase fEPSPs” value [11] was “approximately 10 μM” and the “% Inhibition of Control Specific Binding” value [12] was −1%. The “% of Control Specific Binding” value [12] was 100.4%, the “% Inhibition of Control Specific Binding” value [13] was 5% and the “% of Control Specific Binding” value [13] was 97.9%. The “binding to 5HT1A receptor subtype (in words)” value [13] was “does not bind”.
